O=[N+]([O-])c1c(Cl)cc(Cl)c([N+](=O)[O-])c1Cl
solubility (mole fraction)
Settings	278.15 K	283.15 K	288.15 K	293.15 K	298.15 K	303.15 K	308.15 K	311.15 K	313.15 K	318.15 K
in 1,2-dichloroethane	0.0536	0.0636	0.0732	0.0837	0.0961	0.108	0.123	–	0.144	0.168
in acetone	0.0844	0.0944	0.106	0.117	0.13	0.145	0.162	–	0.18	0.2
in acetonitrile	0.0224	0.0267	0.0313	0.0373	0.0447	0.0531	0.0635	–	0.0769	0.0928
in chloroform	0.0715	0.0892	0.0997	0.11	0.121	0.129	0.141	–	0.165	0.197
in dichloromethane	0.0668	0.0758	0.0869	0.0981	0.11	0.125	0.141	0.147	–	–
in ethanol	0.00389	0.00461	0.00539	0.0062	0.00712	0.00831	0.00969	–	0.0113	0.0132
in ethyl acetate	0.0768	0.0849	0.0947	0.105	0.116	0.13	0.145	–	0.16	0.177
in methanol	0.0034	0.00426	0.00698	0.0221	0.0422	0.0562	0.0718	–	0.0849	0.0909
in methyl acetate	0.074	0.0832	0.0943	0.109	0.124	0.14	0.156	–	0.173	0.19
in n-butanol	0.00475	0.00566	0.00668	0.00776	0.00906	0.0108	0.013	–	0.0157	0.0189
in n-propanol	0.00412	0.0049	0.00565	0.00668	0.00793	0.00921	0.0109	–	0.0132	0.0158
in tetrachloromethane	0.0155	0.0185	0.0224	0.0277	0.0341	0.0411	0.0492	–	0.0589	0.0695
